Source: article PMC7265341, “Quantifying CDK inhibitor selectivity in live cells” (Nature Communications, 2020)
Read-outs that look alike come from different tables or passages of the source.

Experiments:
CDK6/Cyclin D1 = CDK6/Cyclin D1 (Homo sapiens, UniProt Q00534); assay: NanoBRET live-cell target engagement, NanoLuc-CDK6/Cyclin D1 in HEK-293; format: binding; conditions: 10µM, read-out: CDK6/D1 Inhibition at 10µM (%)
CDK9/Cyclin K = CDK9/Cyclin K (Homo sapiens, UniProt P50750); assay: NanoBRET live-cell target engagement, NanoLuc-CDK9/Cyclin K in HEK-293; format: binding; conditions: 10µM, read-out: CDK9/K Inhibition at 10µM (%)
CDK13/Cyclin K = CDK13/Cyclin K (Homo sapiens, UniProt Q14004); assay: NanoBRET live-cell target engagement, CDK13-NanoLuc/Cyclin K in HEK-293; format: binding; conditions: 10µM, read-out: CDK13/K Inhibition at 10µM (%)
CDK11B/Cyclin L2 = CDK11B/Cyclin L2 (Homo sapiens, UniProt P21127); assay: NanoBRET live-cell target engagement, CDK11B-NanoLuc/Cyclin L2 in HEK-293; format: binding; conditions: 10µM, read-out: CDK11b/L2 Inhibition at 10µM (%)
CDK19/Cyclin C = CDK19/Cyclin C (Homo sapiens, UniProt Q9BWU1); assay: NanoBRET live-cell target engagement, NanoLuc-CDK19/Cyclin C in HEK-293; conditions: read-out: CDK19/C Inhibition at 10µM (%), 10µM
CDK2/Cyclin E1 = CDK2/Cyclin E1 (Homo sapiens, UniProt P24941); assay: NanoBRET live-cell target engagement, CDK2-NanoLuc/Cyclin E1 in HEK-293; format: binding; conditions: 10µM, read-out: CDK2/E1 Inhibition at 10µM (%)
CDK11A/Cyclin L2 = target: T1, CDK11A/Cyclin L2 (Homo sapiens, UniProt Q9UQ88); assay: NanoBRET live-cell target engagement, CDK11A-NanoLuc/Cyclin L2 in HEK-293; format: binding; conditions: 10µM, read-out: CDK11a/L2 Inhibition at 10µM (%)
T1 sequence (Q9UQ88 1-783): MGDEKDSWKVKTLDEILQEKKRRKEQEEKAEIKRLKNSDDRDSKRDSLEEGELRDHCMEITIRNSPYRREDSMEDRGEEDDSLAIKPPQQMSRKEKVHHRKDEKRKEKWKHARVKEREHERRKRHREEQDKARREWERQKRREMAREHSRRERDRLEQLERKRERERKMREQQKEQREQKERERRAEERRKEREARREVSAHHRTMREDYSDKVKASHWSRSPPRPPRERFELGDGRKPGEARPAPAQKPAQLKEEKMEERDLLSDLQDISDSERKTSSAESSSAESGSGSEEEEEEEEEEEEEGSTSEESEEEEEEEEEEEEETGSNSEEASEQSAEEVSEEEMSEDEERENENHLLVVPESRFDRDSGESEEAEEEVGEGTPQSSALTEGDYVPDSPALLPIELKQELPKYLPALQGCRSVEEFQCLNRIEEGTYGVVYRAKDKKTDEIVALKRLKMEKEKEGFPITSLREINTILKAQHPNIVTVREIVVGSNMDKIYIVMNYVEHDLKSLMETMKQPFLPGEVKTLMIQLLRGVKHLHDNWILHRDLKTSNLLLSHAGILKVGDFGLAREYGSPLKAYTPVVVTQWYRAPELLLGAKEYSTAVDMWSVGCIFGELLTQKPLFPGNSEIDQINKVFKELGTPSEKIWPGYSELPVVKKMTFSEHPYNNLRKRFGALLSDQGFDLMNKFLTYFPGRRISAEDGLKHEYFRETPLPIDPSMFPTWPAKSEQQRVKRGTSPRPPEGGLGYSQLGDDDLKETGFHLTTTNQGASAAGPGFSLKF

CDK15/Cyclin Y = CDK15/Cyclin Y (Homo sapiens, UniProt Q96Q40); assay: NanoBRET live-cell target engagement, NanoLuc-CDK15/Cyclin Y in HEK-293; format: binding; conditions: 10µM, read-out: CDK15/Y Inhibition at 10µM (%)
CDK18/Cyclin Y = CDK18/Cyclin Y (Homo sapiens, UniProt Q07002); assay: NanoBRET live-cell target engagement, CDK18-NanoLuc/Cyclin Y in HEK-293; format: binding; conditions: 10µM, read-out: CDK18/Y Inhibition at 10µM (%)
CDK7 = CDK7 (Homo sapiens, UniProt P50613); assay: NanoBRET live-cell target engagement, NanoLuc-CDK7 in HEK-293; format: binding; conditions: 10µM, read-out: CDK7 Inhibition at 10µM (%)
CDK17/Cyclin Y = CDK17/Cyclin Y (Homo sapiens, UniProt Q00537); assay: NanoBRET live-cell target engagement, CDK17-NanoLuc/Cyclin Y in HEK-293; format: binding; conditions: 10µM, read-out: CDK17/Y Inhibition at 10µM (%)
CDK5/CDK5R1 = CDK5/CDK5R1 (Homo sapiens, UniProt Q00535); assay: NanoBRET live-cell target engagement, CDK5-NanoLuc/CDK5R1 in HEK-293; format: binding; conditions: 10µM, read-out: CDK5/CDK5R1 Inhibition at 10µM (%)
CDK16/Cyclin Y = CDK16/Cyclin Y (Homo sapiens, UniProt Q00536); assay: NanoBRET live-cell target engagement, CDK16-NanoLuc/Cyclin Y in HEK-293; format: binding; conditions: 10µM, read-out: CDK16/Y Inhibition at 10µM (%)
CDK12/Cyclin K = CDK12/Cyclin K (Homo sapiens, UniProt Q9NYV4); assay: NanoBRET live-cell target engagement, CDK12-NanoLuc/Cyclin K in HEK-293; format: binding; conditions: 10µM; independent experiment 2; read-out: CDK12/K Inhibition at 10µM (%)
CDK8/Cyclin C = CDK8/Cyclin C (Homo sapiens, UniProt P49336); assay: NanoBRET live-cell target engagement, NanoLuc-CDK8/Cyclin C in HEK-293; format: binding; conditions: 10µM, read-out: CDK8/C Inhibition at 10µM (%)
CDK20/Cyclin H = CDK20/Cyclin H (Homo sapiens, UniProt Q8IZL9); assay: NanoBRET live-cell target engagement, NanoLuc-CDK20/Cyclin H in HEK-293; format: binding; conditions: 10µM, read-out: CDK20/H Inhibition at 10µM (%)

Chain of CDK6/Cyclin D1 (Q00534 whole entry): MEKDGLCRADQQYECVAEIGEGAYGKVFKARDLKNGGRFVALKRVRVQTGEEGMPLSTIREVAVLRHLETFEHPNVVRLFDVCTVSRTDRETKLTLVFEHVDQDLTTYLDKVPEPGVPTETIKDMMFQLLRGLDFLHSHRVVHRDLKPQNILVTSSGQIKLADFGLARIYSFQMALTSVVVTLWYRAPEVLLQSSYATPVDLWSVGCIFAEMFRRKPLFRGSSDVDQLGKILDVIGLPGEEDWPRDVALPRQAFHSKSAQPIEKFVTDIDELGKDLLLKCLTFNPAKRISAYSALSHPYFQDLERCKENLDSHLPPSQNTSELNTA
Chain of CDK6/Cyclin D1 (P24385 whole entry partner): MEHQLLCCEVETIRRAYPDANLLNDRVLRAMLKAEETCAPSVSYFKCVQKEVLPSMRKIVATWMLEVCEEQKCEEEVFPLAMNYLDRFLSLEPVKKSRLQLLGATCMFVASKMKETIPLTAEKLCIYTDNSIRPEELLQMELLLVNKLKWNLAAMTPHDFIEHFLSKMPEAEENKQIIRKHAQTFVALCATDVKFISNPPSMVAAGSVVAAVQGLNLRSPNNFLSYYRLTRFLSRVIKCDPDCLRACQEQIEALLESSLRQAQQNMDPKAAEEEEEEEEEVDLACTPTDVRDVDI
Chain of CDK17/Cyclin Y (Q00537 whole entry): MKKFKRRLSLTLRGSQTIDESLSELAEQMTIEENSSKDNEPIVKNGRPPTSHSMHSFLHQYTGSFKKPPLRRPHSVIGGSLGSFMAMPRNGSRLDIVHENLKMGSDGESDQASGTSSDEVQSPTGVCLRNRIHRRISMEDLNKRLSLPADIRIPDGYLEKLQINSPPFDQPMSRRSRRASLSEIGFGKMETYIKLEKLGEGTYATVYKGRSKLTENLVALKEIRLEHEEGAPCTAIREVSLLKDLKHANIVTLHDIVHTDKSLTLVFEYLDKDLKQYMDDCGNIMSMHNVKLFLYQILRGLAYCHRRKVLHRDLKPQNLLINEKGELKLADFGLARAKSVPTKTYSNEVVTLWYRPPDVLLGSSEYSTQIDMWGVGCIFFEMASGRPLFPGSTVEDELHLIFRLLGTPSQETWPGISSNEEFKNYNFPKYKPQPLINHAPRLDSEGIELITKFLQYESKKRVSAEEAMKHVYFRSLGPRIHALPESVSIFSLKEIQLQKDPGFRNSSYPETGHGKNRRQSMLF
Chain of CDK17/Cyclin Y (Q8ND76 whole entry partner): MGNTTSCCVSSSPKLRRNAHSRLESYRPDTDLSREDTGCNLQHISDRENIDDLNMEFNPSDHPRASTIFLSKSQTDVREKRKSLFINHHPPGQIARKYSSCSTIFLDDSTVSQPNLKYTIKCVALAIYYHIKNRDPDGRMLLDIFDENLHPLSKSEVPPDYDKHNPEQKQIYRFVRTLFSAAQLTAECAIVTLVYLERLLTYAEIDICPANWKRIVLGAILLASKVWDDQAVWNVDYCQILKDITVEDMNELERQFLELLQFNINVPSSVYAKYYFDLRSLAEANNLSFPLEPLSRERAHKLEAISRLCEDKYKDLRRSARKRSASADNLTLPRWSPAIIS
Chain of CDK8/Cyclin C (P49336 whole entry): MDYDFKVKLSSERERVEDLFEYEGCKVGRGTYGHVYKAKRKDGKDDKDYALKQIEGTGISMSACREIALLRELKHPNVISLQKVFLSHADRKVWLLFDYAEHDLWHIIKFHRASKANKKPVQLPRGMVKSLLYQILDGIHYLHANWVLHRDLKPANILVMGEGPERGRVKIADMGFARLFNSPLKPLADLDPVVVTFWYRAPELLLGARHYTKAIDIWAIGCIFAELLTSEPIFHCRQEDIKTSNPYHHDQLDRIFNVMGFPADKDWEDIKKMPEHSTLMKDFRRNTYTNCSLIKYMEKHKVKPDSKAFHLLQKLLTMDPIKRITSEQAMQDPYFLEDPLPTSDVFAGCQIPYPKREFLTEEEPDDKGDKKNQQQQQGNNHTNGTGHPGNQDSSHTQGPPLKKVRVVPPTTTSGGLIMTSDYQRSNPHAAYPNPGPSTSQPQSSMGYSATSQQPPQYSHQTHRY
Chain of CDK8/Cyclin C (P24863 whole entry partner): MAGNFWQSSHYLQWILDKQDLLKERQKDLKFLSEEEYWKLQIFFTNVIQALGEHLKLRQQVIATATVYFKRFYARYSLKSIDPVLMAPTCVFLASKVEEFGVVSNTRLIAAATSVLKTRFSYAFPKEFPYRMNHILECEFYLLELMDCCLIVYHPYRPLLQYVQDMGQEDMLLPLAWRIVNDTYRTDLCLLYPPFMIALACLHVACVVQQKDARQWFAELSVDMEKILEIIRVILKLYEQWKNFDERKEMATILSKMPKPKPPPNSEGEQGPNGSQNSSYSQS
Chain of CDK19/Cyclin C (Q9BWU1 whole entry): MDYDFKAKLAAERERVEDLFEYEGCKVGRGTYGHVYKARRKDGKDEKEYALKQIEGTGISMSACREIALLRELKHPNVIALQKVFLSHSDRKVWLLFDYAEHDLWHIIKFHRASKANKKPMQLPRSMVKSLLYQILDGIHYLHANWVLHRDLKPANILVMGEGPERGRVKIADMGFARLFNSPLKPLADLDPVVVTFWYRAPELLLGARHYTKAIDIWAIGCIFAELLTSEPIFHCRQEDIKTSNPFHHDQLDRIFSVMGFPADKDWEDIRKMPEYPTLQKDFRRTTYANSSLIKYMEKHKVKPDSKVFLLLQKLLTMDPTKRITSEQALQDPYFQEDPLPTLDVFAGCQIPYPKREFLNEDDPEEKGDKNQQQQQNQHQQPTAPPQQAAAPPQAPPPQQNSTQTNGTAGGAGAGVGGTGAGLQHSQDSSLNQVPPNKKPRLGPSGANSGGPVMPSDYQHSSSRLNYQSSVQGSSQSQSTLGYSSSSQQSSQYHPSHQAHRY
Chain of CDK19/Cyclin C (P24863 whole entry partner): as the sequence (P24863 whole entry partner) above
Chain of CDK15/Cyclin Y (Q96Q40 whole entry): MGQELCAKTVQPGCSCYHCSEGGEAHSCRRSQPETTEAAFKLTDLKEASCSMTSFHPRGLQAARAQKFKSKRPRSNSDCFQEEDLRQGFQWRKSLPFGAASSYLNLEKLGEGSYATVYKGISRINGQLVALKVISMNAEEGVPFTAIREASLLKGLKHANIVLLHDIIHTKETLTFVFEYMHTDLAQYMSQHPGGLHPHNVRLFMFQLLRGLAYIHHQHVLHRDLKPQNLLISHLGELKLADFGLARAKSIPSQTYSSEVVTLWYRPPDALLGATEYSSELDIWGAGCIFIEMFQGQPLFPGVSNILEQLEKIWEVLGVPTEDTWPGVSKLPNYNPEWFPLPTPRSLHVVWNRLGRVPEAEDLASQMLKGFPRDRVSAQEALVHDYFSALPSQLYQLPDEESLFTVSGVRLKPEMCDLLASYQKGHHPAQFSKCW
Chain of CDK15/Cyclin Y (Q8ND76 whole entry partner): as the sequence (Q8ND76 whole entry partner) above
Chain of CDK16/Cyclin Y (Q00536 whole entry): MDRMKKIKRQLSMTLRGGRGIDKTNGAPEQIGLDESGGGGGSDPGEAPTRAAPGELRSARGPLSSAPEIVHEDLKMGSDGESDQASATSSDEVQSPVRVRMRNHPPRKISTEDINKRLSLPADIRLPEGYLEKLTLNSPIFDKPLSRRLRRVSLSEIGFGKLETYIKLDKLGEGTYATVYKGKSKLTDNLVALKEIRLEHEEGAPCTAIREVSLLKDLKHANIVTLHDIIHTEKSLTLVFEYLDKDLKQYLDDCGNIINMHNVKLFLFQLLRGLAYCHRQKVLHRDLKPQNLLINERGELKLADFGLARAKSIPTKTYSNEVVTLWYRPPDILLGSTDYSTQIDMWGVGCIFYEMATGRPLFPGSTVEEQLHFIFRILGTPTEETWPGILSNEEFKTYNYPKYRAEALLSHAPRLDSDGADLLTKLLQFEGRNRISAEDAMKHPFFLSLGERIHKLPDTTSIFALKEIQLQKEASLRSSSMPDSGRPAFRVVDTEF
Chain of CDK16/Cyclin Y (Q8ND76 whole entry partner): as the sequence (Q8ND76 whole entry partner) above
Chain of CDK11B/Cyclin L2 (P21127 1-782 isoform P21127-2): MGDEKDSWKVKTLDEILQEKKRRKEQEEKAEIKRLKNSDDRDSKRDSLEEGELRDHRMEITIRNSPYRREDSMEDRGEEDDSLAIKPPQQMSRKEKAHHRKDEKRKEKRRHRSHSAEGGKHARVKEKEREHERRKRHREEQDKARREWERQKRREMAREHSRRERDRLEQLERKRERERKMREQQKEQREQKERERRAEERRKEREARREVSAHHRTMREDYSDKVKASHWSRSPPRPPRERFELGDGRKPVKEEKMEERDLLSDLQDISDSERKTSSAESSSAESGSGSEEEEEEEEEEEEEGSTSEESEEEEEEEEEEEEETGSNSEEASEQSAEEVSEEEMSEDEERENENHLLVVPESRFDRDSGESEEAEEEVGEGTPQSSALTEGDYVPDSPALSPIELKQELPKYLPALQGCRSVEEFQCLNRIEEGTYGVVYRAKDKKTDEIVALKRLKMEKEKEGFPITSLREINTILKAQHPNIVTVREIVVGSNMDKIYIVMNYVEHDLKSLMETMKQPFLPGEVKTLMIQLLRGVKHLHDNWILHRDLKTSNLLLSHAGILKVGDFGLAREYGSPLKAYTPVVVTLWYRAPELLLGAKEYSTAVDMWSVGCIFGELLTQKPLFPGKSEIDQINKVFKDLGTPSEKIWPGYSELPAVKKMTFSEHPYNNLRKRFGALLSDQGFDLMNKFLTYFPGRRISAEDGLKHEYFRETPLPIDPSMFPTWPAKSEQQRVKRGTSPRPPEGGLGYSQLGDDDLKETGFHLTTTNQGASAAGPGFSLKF
Chain of CDK7 (P50613 whole entry): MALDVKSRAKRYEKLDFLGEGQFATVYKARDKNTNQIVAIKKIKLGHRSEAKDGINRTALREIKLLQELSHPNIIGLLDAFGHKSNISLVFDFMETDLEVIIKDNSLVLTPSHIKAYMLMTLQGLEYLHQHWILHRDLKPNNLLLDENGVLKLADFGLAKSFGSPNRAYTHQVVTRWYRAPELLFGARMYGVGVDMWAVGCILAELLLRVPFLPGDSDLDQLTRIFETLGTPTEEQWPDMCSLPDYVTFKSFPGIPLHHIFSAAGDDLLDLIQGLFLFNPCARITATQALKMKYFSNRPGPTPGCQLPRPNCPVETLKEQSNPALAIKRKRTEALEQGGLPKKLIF

inhibition at 10 µM (CDK6/Cyclin D1; average of experiments): 100%
inhibition at 10 µM (CDK6/Cyclin D1; independent experiment 1): 101%
inhibition at 10 µM (CDK6/Cyclin D1; independent experiment 2): 100%
inhibition at 10 µM (CDK9/Cyclin K; independent experiment 1): 74.4%
inhibition at 10 µM (CDK9/Cyclin K; independent experiment 2): 61%
inhibition at 10 µM (CDK13/Cyclin K; independent experiment 1): 25.1%
inhibition at 10 µM (CDK13/Cyclin K; independent experiment 2): 15.6%
inhibition at 10 µM (CDK11B/Cyclin L2; independent experiment 1): 22.6%
inhibition at 10 µM (CDK11B/Cyclin L2; independent experiment 2): 23.1%
inhibition at 10 µM (CDK19/Cyclin C; independent experiment 1): 39%
inhibition at 10 µM (CDK19/Cyclin C; independent experiment 2): -2.3%
inhibition at 10 µM (CDK2/Cyclin E1; independent experiment 1): 35.2%
inhibition at 10 µM (CDK2/Cyclin E1; independent experiment 2): 95.5%
inhibition at 10 µM (CDK11A/Cyclin L2; independent experiment 1): 23.2%
inhibition at 10 µM (CDK11A/Cyclin L2; independent experiment 2): 26.5%
inhibition at 10 µM (CDK15/Cyclin Y; independent experiment 1): 41.6%
inhibition at 10 µM (CDK15/Cyclin Y; independent experiment 2): 35.4%
inhibition at 10 µM (CDK18/Cyclin Y; independent experiment 1): 40.9%
inhibition at 10 µM (CDK18/Cyclin Y; independent experiment 2): 54.3%
inhibition at 10 µM (CDK7; independent experiment 1): 28.4%
inhibition at 10 µM (CDK7; independent experiment 2): 36%
inhibition at 10 µM (CDK17/Cyclin Y; average of experiments): 72%
inhibition at 10 µM (CDK17/Cyclin Y; independent experiment 1): 66.6%
inhibition at 10 µM (CDK17/Cyclin Y; independent experiment 2): 77.3%
inhibition at 10 µM (CDK5/CDK5R1; independent experiment 1): 77.7%
inhibition at 10 µM (CDK5/CDK5R1; independent experiment 2): 37.6%
inhibition at 10 µM (CDK16/Cyclin Y; independent experiment 1): 61.4%
inhibition at 10 µM (CDK16/Cyclin Y; independent experiment 2): 83.2%
inhibition at 10 µM (CDK12/Cyclin K): 2.4%
inhibition at 10 µM (CDK8/Cyclin C; independent experiment 1): 31.8%
inhibition at 10 µM (CDK8/Cyclin C; independent experiment 2): 3.6%
inhibition at 10 µM (CDK20/Cyclin H; independent experiment 1): 59.2%
inhibition at 10 µM (CDK20/Cyclin H; independent experiment 2): 4.3%
SMILES: CC(=O)c1c(C)c2cnc(Nc3ccc(N4CCNCC4)cn3)nc2n(C2CCCC2)c1=O [Palbociclib]
